# Laboratory results taken from patent US10300056B2, “CGRP receptor antagonists” (Heptares Therapeutics Limited, priority 2015, dated 2019).
# Tests used:
# [1] = at 24 h after intravenous infusion of a 2.5 mg dose; cited from earlier work
# [2] = biological target: CGRP receptor ectodomain complex (Homo sapiens (Human), UniProt O60894+Q16602); assay: Receptor kinetic profiling by surface plasmon resonance (Biacore T200); details: dissociation half-life, SPR, 25° C.
# Experimental: Kinetic analyses were run on a Biacore T200 instrument (GE Healthcare Bio-Sciences AB, Uppsala, Sweden) at 25° C. using 0.05 mM EDTA, PBS (10 mM phosphate buffer, 2.7 mM KCl, 137 mM NaCl) pH 7.4, 0.005% v/v Surfactant P20, 5% DMSO as the running buffer. […] The chip was loaded with Ni^2+ and carboxyl groups of the dextran matrix were activated by EDC/NHS. The receptor ectodomain complex (100 nM in running buffer) was then injected and immobilised via the His-tag and amino groups. Two fold dilution series of each compound (five concentrations, in the range 25-40 nM) were injected. Blank-subtracted data were fitted to a 1:1 interaction model to obtain kinetic parameters which are expressed in Table 4 as dissociation half-life (t1/2=(ln 2/off-rate (kd)/60).
# CGRP receptor = CGRP receptor (Homo sapiens (Human), UniProt O60894+Q16602); details: in words, literature; cited from earlier work
# Chain of CGRP receptor (Q16602 23-461): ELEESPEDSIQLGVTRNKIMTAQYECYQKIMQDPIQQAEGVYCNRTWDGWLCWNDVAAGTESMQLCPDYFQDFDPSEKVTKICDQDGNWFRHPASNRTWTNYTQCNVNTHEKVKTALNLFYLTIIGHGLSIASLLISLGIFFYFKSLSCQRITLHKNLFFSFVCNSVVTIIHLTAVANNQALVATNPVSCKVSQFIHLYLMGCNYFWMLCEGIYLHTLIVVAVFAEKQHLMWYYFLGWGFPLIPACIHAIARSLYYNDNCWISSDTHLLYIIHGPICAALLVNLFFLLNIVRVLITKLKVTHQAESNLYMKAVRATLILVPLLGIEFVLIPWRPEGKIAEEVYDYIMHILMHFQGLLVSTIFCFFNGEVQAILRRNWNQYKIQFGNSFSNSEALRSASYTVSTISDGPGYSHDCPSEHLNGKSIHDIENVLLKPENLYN
# Chain of CGRP receptor (O60894 27-148): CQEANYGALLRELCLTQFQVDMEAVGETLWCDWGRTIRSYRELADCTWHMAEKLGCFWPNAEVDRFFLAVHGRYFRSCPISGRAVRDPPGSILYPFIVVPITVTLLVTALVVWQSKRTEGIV
# Chain of CGRP receptor ectodomain complex (Q16602 23-139): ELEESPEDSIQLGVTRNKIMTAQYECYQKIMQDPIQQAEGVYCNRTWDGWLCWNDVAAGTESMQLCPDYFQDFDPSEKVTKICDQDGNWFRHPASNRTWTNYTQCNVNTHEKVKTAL
# Chain of CGRP receptor ectodomain complex (O60894 27-118): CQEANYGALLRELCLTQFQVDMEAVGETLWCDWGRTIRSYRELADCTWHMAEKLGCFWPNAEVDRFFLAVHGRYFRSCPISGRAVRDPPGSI
compound,measurement,setting,value
NCCCC[C@H](NC(=O)[C@@H](Cc1cc(Br)c(O)c(Br)c1)NC(=O)N1CCC(N2Cc3ccccc3NC2=O)CC1)C(=O)N1CCN(c2ccncc2)CC1 [olcegepant],headache-free rate,[1],47%
same,CGRP t1/2,[2],30 min
same,kinetics at the CGRP receptor,CGRP receptor,slow kinetics
